Reference: patent US10137079B2, “Transdermal composition for treating pain” (priority 2014, dated 2018)

Legend:
[1] = test system: skin; conditions: in vivo
From the text: Menthol can optionally be added to overcome the burning sensation caused by the capsaicin. […] 13, 2012 has reported that skin can burn with menthol concentrations above 3% (http://www.fda.gov/Drugs/DrugSafety/ucm318858.htm). Thus, in one embodiment, the concentration of menthol in the ethosome compositions is less than about 3% by weight. In another embodiment, the concentration of menthol in the ethosome compositions is about 2% by weight.

[2] = test system: skin; conditions: FDA Safety Announcement Sep. 13, 2012; cited from earlier work

Question: Which burning sensation [1] does the source give for CC1CCC(C(C)C)C(O)C1 (centres unmarked) [Menthol] here?
Answer: Its burning sensation is “can cause a burning sensation on its own”.

Question: And the “menthol concentrations at which skin can burn” value [2]?
Answer: Its value is “above 3%”.
